We go through 22 molecules from patent EP2853565A1, “Glutamate receptor photomodulators” (Consejo Superior De Investigaciones Científicas, priority 2013, dated 2015).

Assay [1] addresses T1, rat metabotropic glutamate receptor 5 (mGlu5) (Rattus norvegicus, UniProt P31424).
T1 construct: expressed in transfected cells; host or cells: HEK tsA201 cells
The experiment in a line: Single-cell calcium imaging (Fura-2) of quisqualate-evoked calcium oscillations, with photoisomerization by 390/490 nm light. It counts as cell-based. The procedure:
Cell Culture and Transient Transfection: Human embryonic kidney (HEK) tsA201 cells were maintained at 37 °C and humidified atmosphere with 5% CO2; cells were grown in Dulbecco's Modified Eagle's Medium/Nutrient Mixture F-12 Ham (DMEM/F12, 1:1) medium, supplemented with 10% Fetal Bovine Serum (FBS) and antibiotics (1% Penicillin/Streptomycin). Once at confluence, culture flasks were washed twice with PBS and harvested with 300 µl Accutase. Expression of rat mGlu5a was induced by transient transfection of the cDNA-containing plasmid with X-tremeGENE 9 DNA Transfection Reagent. For transfection, cells were seeded at a concentration of 10^6 cells per well on 6-multiwell plates with a final volume of 2ml, and immediately transfected following manufacturer's instructions (100 µl mixture of 3:1 (µl:µg) of X-tremeGENE 9 DNA TR:mGlu5a plasmid in serum-free medium, 20 minutes incubation). About 24h after transfection, HEK tsA201 cells transiently overexpressing mGlu5a were seeded onto 15 mm glass coverslips pre-treated with Poly-L-Lysine to allow cell adhesion. Seeding concentration was maintained between 2/4·10^5 cells to get preconfluent cultures at the time of experiment. Transfected cells were used for single-cell calcium imaging experiments between 48 and 72 hours after transfection.
Single-cell Calcium Imaging: At the time of experiments, glass coverslips were mounted onto the recording chamber, and cells were loaded with the high affinity, ratiometric, intracellular calcium indicator Fura-2 AM; the dye was incubated during 30 minutes at 37°C and 5% CO2, at a final concentration of 10 µM in Ca^2+-free extracellular solution (ES, -Ca^2+). We used a ratiometric calcium sensor in order to avoid bleaching artefacts. Cells were then carefully rinsed with fresh ES, three to four times, before the recording chamber was placed on an inverted fully-motorised digital microscope (iMic 2000, Till Photonics, Gräfelfing, Germany). Images were acquired at room temperature with a UV Apochromat 40x oil objective lens (Olympus, Tokio, Japan). Fura-2 AM was excited consecutively for 10 ms at two different wavelengths (340 and 380 nm) as indicated by the manufacturer (Life Technologies, Paisley, UK) by using a Polychrome V light source (Till Photonics) and a 505 nm dichroic beamsplitter (Chroma Technology, Below Falls, VT, USA); emission at 510 nm was filtered by a D535/40nm emission filter (Chroma Technology) and finally collected by a cooled CCD camera (Interline Transfer IMAGO QE, Till Photonics). The fluorescence measurements (excitation + emission recording) were carried out every 2 seconds, and each measurement takes about 10-50 ms. The 340 and 380 nm images were stored by the TILLvisION imaging software (Till Photonics); the ratio of the emission when the sample was excited at 340 nm and the emission when it was excited at 380 nm was recorded and its mean value was calculated for each cell using the same software. Higher ratios correspond to higher intracellular calcium concentrations.
Agonists and allosteric modulators addition was obtained by carefully pipetting an initial 1:30 dilution of the compound directly into the accessory pool of the recording chamber, obtaining a final dilution of 1:1000 (total DMSO concentration was always lower than 1%). Activation of the agonist was induced in HEK tsA201 mGlu5a transfected cells with the glutamate analogue Quisqualic acid (3 µM). Only evoked, sustained intracellular calcium oscillations were taken into account as consistent cell responses to the application of the agonist; different responses (such as single-peak, peak-and-plateau, etc.), as well as spontaneously oscillating cells, were discarded as unsuitable for calculating the oscillatory frequency.
Solutions and Reagents: The extracellular solution (ES) used for single-cell calcium imaging contained: 140 mM NaCl, 5.4 mM KCI, 1 mM MgCl2, 10 mM HEPES, 10 mM glucose and 2 mM CaCl2 adjusted to pH 7.4 with NaOH. […]

The target of another assay is T2, rat mGlu5 receptor (Rattus norvegicus, UniProt P31424).
T2 construct: expressed in transfected cells; host or cells: HEK293 cells (EAAC1 glutamate transporter cotransfected)
Kind of assay: IP1 accumulation (IP-One HTRF) in transiently transfected HEK293 cells. It counts as cell-based. Particulars: IP1 production, HEK293 cells with rat mGlu5 and EAAC1, 30 min incubation, 100 nM Quisqualate. The procedure: Pharmacological experiments on mGlu receptors were performed in HEK293 cells cultured in Dulbecco's modified Eagle's medium (GIBCO-BRL Life Technologies Inc., Cergy Pontoise, France) supplemented with 10% fetal calf serum (FCS, GIBCO-BRL Life Technologies., Cergy Pontoise, France). The compounds were tested on a rat mGlu5 receptor, which was transiently transfected in HEK293 cells by electroporation as described elsewhere [Neuropharmacology 1998, 37, 1043-1051]. Additionally, a plasmid encoding the high-affinity glutamate transporter EAAC1 was cotransfected to prevent the influence of the glutamate released by the cells in the medium. Receptor activity is monitored by measurement of IP1 production using the kit IP-One HTRF® Assay from Cisbio Bioassays (France). For IP1 accumulation measurements, cells were seeded after transfection in polyornithine-coated, black-walled 96-well Polystyrene Cell Culture Microplates (Greiner Bio-One SAS, France) and cultured for 24 h in glutamate/glutamine-free medium (GIBCO-BRL Life Technologies Inc., Cergy Pontoise, France) and antibiotics (penicillin and streptomycin, 100 UmL_1 final, GIBCO-BRL Life Technologies). Media was removed and cells were incubated for 30min in a solution containing the drugs at the tested concentrations. The IP-One stimulation buffer, provided with the kit IP-One (Cisbio Bioassays, France), contains lithium chloride (LiCl) at 50mM that inhibits the degradation of IP1 to Myo-inositol, which is then accumulated in the cell. HTRF reagents, monoclonal antibody specific to IP1 labelled with terbium cryptate and IP1 coupled with the dye d2, diluted in a Lysis buffer were added. After 1 hour of incubation, time resolved fluorescence at 620nm and 665nm was measured with RUBYstar (BMG Labtech, Germany). The specific signal, which results from the energy transfer between […], is proportional to the ratio between the fluorescence emitted at 620 nm and 665 nm, and consequently to the concentration of IP1 in the lysate. All points were determined in triplicate. The dose-response curves were fitted using GraphPad Prism software and the following equation: y= [(ymax-ymin)/(1+10^(LogIC50-x))]+ymin, in which IC50 is the concentration of the compound necessary to obtain the half-maximal effect. (10 µM ≤ IC50 < 50 µM +; 2 µM ≤ IC50 < 10 µM ++; 500 nM ≤ IC50 < 2 µM +++; 100 nM ≤ IC50<500 nM ++++; IC50< 100 nM +++++) Table 14.

The mark [2] stands for this setting: 3 µM quisqualate, HEK tsA201 cells.

T1 sequence (P31424 21-1171 isoform P31424-2 limits assumed): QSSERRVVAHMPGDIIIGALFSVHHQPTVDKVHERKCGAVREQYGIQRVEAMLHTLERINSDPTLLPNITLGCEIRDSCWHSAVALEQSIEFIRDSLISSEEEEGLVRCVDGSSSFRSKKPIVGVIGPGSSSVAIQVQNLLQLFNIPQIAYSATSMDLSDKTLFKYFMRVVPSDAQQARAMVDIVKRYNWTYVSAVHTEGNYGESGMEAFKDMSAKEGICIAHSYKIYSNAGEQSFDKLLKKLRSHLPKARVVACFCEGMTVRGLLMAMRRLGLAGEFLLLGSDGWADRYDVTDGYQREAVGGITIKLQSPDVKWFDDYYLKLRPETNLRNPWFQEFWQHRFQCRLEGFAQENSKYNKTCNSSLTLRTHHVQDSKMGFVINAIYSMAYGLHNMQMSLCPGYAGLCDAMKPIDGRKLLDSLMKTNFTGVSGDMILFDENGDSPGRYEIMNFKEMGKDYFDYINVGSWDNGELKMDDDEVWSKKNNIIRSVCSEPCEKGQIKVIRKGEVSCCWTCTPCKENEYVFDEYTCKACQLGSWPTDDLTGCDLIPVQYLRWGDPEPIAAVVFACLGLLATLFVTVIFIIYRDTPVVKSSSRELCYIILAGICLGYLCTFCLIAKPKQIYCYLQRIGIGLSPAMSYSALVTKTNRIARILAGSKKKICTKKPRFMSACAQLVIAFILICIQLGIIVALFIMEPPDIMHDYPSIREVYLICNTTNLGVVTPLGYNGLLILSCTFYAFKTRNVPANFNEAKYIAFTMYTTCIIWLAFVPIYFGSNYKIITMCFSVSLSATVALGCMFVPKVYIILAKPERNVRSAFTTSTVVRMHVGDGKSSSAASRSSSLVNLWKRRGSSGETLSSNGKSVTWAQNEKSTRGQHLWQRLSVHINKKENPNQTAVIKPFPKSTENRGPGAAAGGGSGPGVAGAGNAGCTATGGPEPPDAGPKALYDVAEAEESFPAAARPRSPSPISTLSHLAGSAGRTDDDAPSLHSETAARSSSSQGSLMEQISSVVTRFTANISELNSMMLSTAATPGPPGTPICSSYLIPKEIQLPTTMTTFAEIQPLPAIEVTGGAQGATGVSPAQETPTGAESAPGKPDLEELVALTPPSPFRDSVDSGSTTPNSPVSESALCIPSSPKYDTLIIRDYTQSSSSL
T2 sequence (P31424 21-1203): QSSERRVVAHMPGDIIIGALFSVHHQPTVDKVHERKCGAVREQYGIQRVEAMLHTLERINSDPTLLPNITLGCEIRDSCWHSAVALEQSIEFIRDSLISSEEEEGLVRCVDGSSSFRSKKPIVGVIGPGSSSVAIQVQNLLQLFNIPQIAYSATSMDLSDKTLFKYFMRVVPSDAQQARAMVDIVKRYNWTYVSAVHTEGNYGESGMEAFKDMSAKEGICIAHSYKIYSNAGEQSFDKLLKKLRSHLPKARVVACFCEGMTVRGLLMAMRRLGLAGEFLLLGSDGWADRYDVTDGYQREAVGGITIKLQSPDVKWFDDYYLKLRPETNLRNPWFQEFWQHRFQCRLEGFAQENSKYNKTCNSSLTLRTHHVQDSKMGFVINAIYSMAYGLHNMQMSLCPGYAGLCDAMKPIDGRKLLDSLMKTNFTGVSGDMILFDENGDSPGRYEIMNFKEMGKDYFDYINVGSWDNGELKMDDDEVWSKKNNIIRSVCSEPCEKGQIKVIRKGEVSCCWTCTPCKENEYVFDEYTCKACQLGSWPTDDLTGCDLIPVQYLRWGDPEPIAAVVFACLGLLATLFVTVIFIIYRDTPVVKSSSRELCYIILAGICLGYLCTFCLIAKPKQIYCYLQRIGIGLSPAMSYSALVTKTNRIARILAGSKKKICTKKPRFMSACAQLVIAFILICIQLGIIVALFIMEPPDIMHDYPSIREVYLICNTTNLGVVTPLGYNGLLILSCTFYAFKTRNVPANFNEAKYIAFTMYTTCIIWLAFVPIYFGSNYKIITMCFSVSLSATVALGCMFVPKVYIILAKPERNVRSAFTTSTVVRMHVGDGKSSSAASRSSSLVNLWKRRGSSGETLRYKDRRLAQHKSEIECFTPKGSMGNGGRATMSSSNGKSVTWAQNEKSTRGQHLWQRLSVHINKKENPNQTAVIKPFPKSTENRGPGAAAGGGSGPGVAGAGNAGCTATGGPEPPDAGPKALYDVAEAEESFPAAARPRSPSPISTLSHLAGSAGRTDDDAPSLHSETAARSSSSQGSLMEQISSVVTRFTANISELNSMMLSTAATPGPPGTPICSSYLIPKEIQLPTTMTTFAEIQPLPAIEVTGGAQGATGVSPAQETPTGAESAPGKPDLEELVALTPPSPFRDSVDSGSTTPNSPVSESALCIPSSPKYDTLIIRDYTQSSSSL

As for `COc1cc(/C=C/c2ccccn2)ccc1NC(=O)c1ccccc1Cl` [(E)-47, (E)-2-Chloro-N-(2-methoxy-4-(2-(pyridin-2-yl)vinyl)phenyl)benzamide, reference compound], in assay [1] (setting [2]), the “effect on mGlu5 response (calcium oscillations)” value (shortened to “effect … (calcium oscillations)”) is given as “blocked the oscillatory responses of quisqualate”. Turning to `COc1cc(/N=N\c2ccccn2)ccc1NC(=O)c1ccccc1Cl` [(Z)-1c, (Z)-2-chloro-N-(2-methoxy-4-(pyridin-2-yldiazenyl)phenyl)benzamide], the “effect … (calcium oscillations)” value in assay [1] (setting [2]) is listed as “increases this response”. Take `COc1cc(/C=C\c2ccccn2)ccc1NC(=O)c1ccccc1Cl` [(Z)-47, (Z)-2-Chloro-N-(2-methoxy-4-(2-(pyridin-2-yl)vinyl)phenyl)benzamide, reference compound]: in assay [1] (setting [2]), the “effect … (calcium oscillations)” value is listed as “inhibits mGlu5 activation”. For the molecule `COc1cc(/N=N/c2ccccn2)ccc1NC(=O)c1ccc(C(=O)c2ccccc2)cc1` [Compound 1a, (E)-4-Benzoyl-N-(2-methoxy-4-(pyridin-2-yldiazenyl)phenyl)benzamide], the IC50 at rat mGlu5 receptor lay within 500 to 2000 nM. Regarding `COc1cc(/N=N/c2ccccn2)ccc1NC(=O)c1ccc(Cl)cc1Cl` [Compound 1b, (E)-2,4-Dichloro-N-(2-methoxy-4-(pyridin-2-yldiazenyl)phenyl)benzamide], the IC50 on rat mGlu5 receptor lay in the range of 500 to 2000 nM. Turning to `COc1cc(/N=N/c2ccccn2)ccc1NC(=O)c1ccccc1Cl` [Compound 1c, (E)-2-Chloro-N-(2-methoxy-4-(pyridin-2-yldiazenyl)phenyl)benzamide], the IC50 on rat mGlu5 receptor was less than 100 nM; in assay [1] (in the dark or under 490 nm light, 3 µM quisqualate, HEK tsA201 cells, read-out: IC50 (inhibitory profile on calcium oscillations)), 30 nM. Further, in assay [1] (100 nM compound, 390 nm illumination, compared with quisqualate alone), the “oscillatory frequency at 390 nm” value is reported as “significantly higher than with quisqualate alone”. Moreover, the “oscillatory responses to 3 µM quisqualate” value in assay [1] (100 nM compound, in the dark or under 490 nm light) is given as “completely blocked”. The “effect … (calcium oscillations)” value in assay [1] (setting [2]) was “inhibit mGlu5 response”. Further, the “light dependence of the activity on mGlu5” value in assay [1] (3 µM quisqualate, UV (380/390 nm) and visible (500/490 nm) light) is “could be reversibly switched on and off at 390 nm and 490 nm”.

Regarding `COc1cc(/N=N/c2ccccn2)ccc1NC(=O)c1ccccn1` [Compound 1d, (E)-N-(2-Methoxy-4-(pyridin-2-yldiazenyl)phenyl)picolinamide], the IC50 at rat mGlu5 receptor is 100 to 500 nM. Regarding `COc1cc(/N=N/c2ccccn2)ccc1NC(=O)c1cccnc1` [Compound 1e, (E)-N-(2-Methoxy-4-(pyridin-2-yldiazenyl)phenyl)nicotinamide], on rat mGlu5 receptor, the 50% inhibitory concentration (IC50) fell in the range of 100 to 500 nM.

As for `COc1cc(/N=N/c2ccccn2)ccc1NC(=O)c1ccncc1` [Compound 1f, (E)-N-(2-Methoxy-4-(pyridin-2-yldiazenyl)phenyl)isonicotinamide], at rat mGlu5 receptor, the IC50 lay within 500 to 2000 nM. In the case of `N#Cc1cc(/N=N/c2ccccn2)ccc1NC(=O)c1ccccn1` [Compound 1g, (E)-N-(2-Cyano-4-(pyridin-2-yldiazenyl)phenyl)picolinamide], the IC50 at rat mGlu5 receptor was in the range of 2000 to 10000 nM. `O=C(Nc1ccc(/N=N/c2ccccn2)cc1)c1ccccn1` [Compound 1h, (E)-N-(4-(Pyridin-2-yldiazenyl)phenyl)picolinamide]: at rat mGlu5 receptor, the half-inhibitory concentration (IC50) was in the range of 2000 to 10000 nM. On to `COc1cc(NC(=O)c2ccccn2)ccc1/N=N/c1ccccn1` [Compound 1i, (E)-N-(3-Methoxy-4-(pyridin-2-yldiazenyl)phenyl)picolinamide], for which, at rat mGlu5 receptor, the IC50 was in the range of 10000 to 50000 nM. On the same count and under the same terms, to `COc1cc(/N=N/c2ccccn2)ccc1N1C(=O)c2ccccc2C1=O` [Compound 1j, (E)-2-(2-Methoxy-4-(pyridin-2-yldiazenyl)phenyl)isoindoline-1,3-dione] belongs 2000 to 10000 nM; to `COc1cc(/N=N/c2ccccn2)ccc1N(C(=O)c1ccccc1)C(=O)c1ccccc1` [Compound 1k, (E)-N-Benzoyl-N-(2-methoxy-4-(pyridin-2-yldiazenyl)phenyl)benzamide], 500 to 2000 nM. Turning to `COc1cc(/N=N/c2ccccn2)ccc1NC(=O)c1ccccc1` [Compound 1l, (E)-N-(2-Methoxy-4-(pyridin-2-yldiazenyl)phenyl)benzamide], on rat mGlu5 receptor, the IC50 was in the range of 100 to 500 nM. Take `COc1cc(/N=N/c2ccccn2)ccc1NC(=O)C(C)C` [Compound 1m, (E)-N-(2-Methoxy-4-(pyridin-2-yldiazenyl)phenyl)isobutyramide]: on rat mGlu5 receptor, the IC50 is less than 100 nM.

With `COc1cc(/N=N/c2ccccn2)ccc1NC(=O)C1CCCCC1` [Compound 1n, (E)-N-(2-Methoxy-4-(pyridin-2-yldiazenyl)phenyl)cyclohexanecarboxamide], on rat mGlu5 receptor, the IC50 was less than 100 nM. Regarding `COc1cc(/N=N/c2ccccn2)ccc1NC(=O)Nc1ccccc1F` [Compound 1o, (E)-1-(2-Fluorophenyl)-3-(2-methoxy-4-(pyridin-2-yldiazenyl)phenyl)urea], at rat mGlu5 receptor, the IC50 fell in the range of 500 to 2000 nM. Turning to `COc1cc(/N=N/c2ccccn2)ccc1NC(=O)c1ccccc1F` [Compound 1p, (E)-2-Fluoro-N-(2-methoxy-4-(pyridin-2-yldiazenyl)phenyl)benzamide], the IC50 on rat mGlu5 receptor was in the range of 100 to 500 nM. Consider `COc1cc(/N=N/c2ccccn2)ccc1NC(=O)c1cscn1` [Compound 1r, (E)-N-(2-Methoxy-4-(pyridin-2-yldiazenyl)phenyl)thiazole-4-carboxamide], for which the concentration for half-maximal inhibition (IC50) at rat mGlu5 receptor is 100 to 500 nM.

For the molecule `O=C(Nc1ccccn1)c1ccc(/N=N/c2ccccn2)cc1` [Compound 1s, (E)-N-(Pyridin-2-yl)-4-(pyridin-2-yldiazenyl)benzamide], the half-maximal inhibitory concentration (IC50) at rat mGlu5 receptor fell in the range of 10000 to 50000 nM. As for `O=C(Nc1cccc(/N=N/c2ccccn2)c1)c1ccccn1` [Compound 1t, (E)-N-(3-(pyridin-2-yldiazenyl)phenyl)picolinamide], the IC50 on rat mGlu5 receptor lay in the range of 10000 to 50000 nM.
